The source of these data is PMC12633732, “Dynamics of release and activity of select neuropeptides post-bloodmeal in the female mosquito, Aedes aegypti” (The Journal of Experimental Biology, 2025).

Like-named read-outs stand apart in the source and are kept apart here. Bridge positions count the residues as written; N and C are the ends. Square brackets hold non-standard residues; d marks the D form. Ends that are not written are not given here. Peptide text beside a SMILES is read from it. pGlu = O=C1CC[C@@H](C(=O)O)N1

In test [1] the test system is Malpighian tubules (MTs) of adult female A. aegypti. Also on record: species or system Aedes aegypti. Particulars: for Effect of single diuretic on fluid secretion: 25 nmol l^−1 DH31, 100 nmol l^−1 5HT, 10 nmol l^−1 DH44, 50 nmol l^−1 CDP, 60 min, Fig. 5A. Here is the method:
In order to determine fluid secretion rates, modified Ramsay assays were performed as described previously ([Lajevardi et al., 2021]; [Sajadi et al., 2018]). Female adults (4–7 days old) were dissected under physiological Aedes saline adapted from [Petzel et al. (1987)] that contained (in mmol l^−1): 150 NaCl, 25 Hepes, 3.4 KCl, 7.5 NaOH, 1.8 NaHCO3, 1 MgSO4, 1.7 CaCl2 and 5 glucose, and titrated to pH 7.1. Individual MTs were removed and placed in a Sylgard-lined Petri dish containing 20 µl bathing droplets [1:1 mixture of Schneider's Insect Medium (Sigma-Aldrich, Oakville, ON, Canada): Aedes saline], immersed in hydrated mineral oil to prevent evaporation. The proximal end of each tubule was wrapped around a minutien pin to allow for fluid secretion measurements. Dose response analysis for AedaeDH31 was determined by using concentrations ranging from 10^−5 to 10^−12 mol l^−1 on unstimulated MTs. To investigate the effects of collected haemolymph samples on fluid secretion rate, haemolymph samples from both non-blood-fed and blood-fed females were used against unstimulated MTs and allowed to incubate for 60 min before measurement of secreted fluid droplets. To investigate potential additive or synergistic activity, dosages of 25 nmol l^−1 AedaeDH31, 10 nmol l^−1 Rhodnius prolixus DH (CRF-related peptide, DH44), 50 nmol l^−1 CDP, 100 nmol l^−1 5HT, and 1 fmol l^−1 AedaeCAPA-1 were used ([Sajadi et al., 2018], [2020]).

The target of test [2] is T1, Aedaekinin-R (Aedes aegypti, UniProt Q5EY37).
T1 sequence (Q5EY37 1-584): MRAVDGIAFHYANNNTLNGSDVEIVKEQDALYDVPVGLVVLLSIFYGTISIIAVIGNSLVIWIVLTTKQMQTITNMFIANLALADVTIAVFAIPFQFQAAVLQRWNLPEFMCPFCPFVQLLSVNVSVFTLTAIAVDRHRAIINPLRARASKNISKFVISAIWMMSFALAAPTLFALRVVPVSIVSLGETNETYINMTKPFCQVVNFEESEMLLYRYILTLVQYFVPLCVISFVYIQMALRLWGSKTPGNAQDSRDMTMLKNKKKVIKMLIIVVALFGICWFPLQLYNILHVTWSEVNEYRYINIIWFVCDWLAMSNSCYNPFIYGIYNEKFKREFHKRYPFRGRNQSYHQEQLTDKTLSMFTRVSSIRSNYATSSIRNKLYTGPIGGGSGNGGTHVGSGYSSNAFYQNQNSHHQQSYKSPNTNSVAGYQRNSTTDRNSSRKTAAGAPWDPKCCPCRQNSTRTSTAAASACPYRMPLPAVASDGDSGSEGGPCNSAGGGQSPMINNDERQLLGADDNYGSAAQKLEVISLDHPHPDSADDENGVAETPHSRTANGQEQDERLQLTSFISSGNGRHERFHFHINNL
The test can be described thus: Heterologous receptor functional activation bioluminescence assay, Aedaekinin-R. The class given is cell-based. From the text: (§1) Gene-specific primers were designed to amplify the open reading frame of the AedaeDH31 receptor and Aedaekinin receptor based on previously published sequences [GenBank accession numbers: DH31-R, AAGE02017873 ([Kwon et al., 2012]); kinin-R, AY596453.1 ([Lu et al., 2011]); see Table 1]. The amplified PCR products were purified using a Monarch PCR purification kit (New England Biolabs, Whitby, ON, Canada) and reamplified using modified primers containing restriction sites for subsequent directional cloning in mammalian expression plasmids. Products were A-tailed and cloned into a pGEM-T Easy vector (Promega, Madison, WI, USA) or pCE2 TA/Blunt-Zero vector (GeneBio Systems, Burlington, ON, Canada) and then transformed into 5-alpha high efficiency competent E. coli (New England Biolabs, Whitby, ON, Canada). Base accuracy of purified plasmid DNA miniprep was confirmed by Sanger sequencing (The Centre for Applied Genomics, Sick Kids, Toronto, ON, Canada). The receptor constructs DH31-R and kinin-R were excised using standard restriction enzyme digestion and subcloned into the mammalian expression vectors, pBudCE4.1 Gα15 or pcDNA3.1^+ (Life Technologies, Burlington, ON, Canada), with the former containing a mammalian promiscuous G protein (Gα15), which facilitates coupling of a wide variety of GPCRs to calcium signaling ([Wahedi et al., 2019]). The previously characterized A. aegypti CAPA receptor inserted into pcDNA3.1^+ ([Sajadi et al., 2020]) was also used for transfection of mammalian cells. Plasmid DNA was purified from overnight bacterial cultures using the ZymoPURE II Plasmid Midiprep Kit (Zymo Research, Tustin, CA, USA) following manufacturer guidelines. These three heterologously expressed receptors were used to determine the timing of release and quantify the levels in the haemolymph of CAPA (both CAPA-1 and CAPA-2), DH31 along with kinin neuropeptides in association with blood feeding by adult female mosquitoes.
(§2) Functional activation of the AedaeDH31-R, AedaeCAPA-R, and Aedaekinin-R was assayed using a previously established recombinant Chinese hamster ovary (CHO)-K1 cell line stably expressing aequorin, referred to henceforth as CHO-K1-aeq cells ([Paluzzi et al., 2012a]; [Wahedi and Paluzzi, 2018]). […] Cells were grown and maintained in Dulbecco's modified eagles medium:nutrient F12 (DMEM:F12; 1:1) medium containing 10% heat-inactivated fetal bovine serum (FBS; Wisent, St. Bruno, QC, Canada), 1× antimycotic-antibiotic and 200 µg ml^−1 geneticin (G418 Sulfate). […] Approximately 48 h post-transfection, cells were dislodged from the culture flasks using 5 mmol l^−1 ethylenediaminetetraacetic acid (EDTA; Life Technologies, Burlington, ON, Canada) in DPBS and cells were resuspended in BSA medium (DMEM-F12 medium containing 0.1% bovine serum albumin, 1X antimycotic-antibiotic) at a concentration of 10^6–10^7 cells ml^−1 quantified using a Countess II FL cell counter (Thermo Fisher Scientific, Burlington, ON, Canada). Coelenterazine h (Promega, Madison, WI, USA) was added to the cells to a final concentration of 5 µmol l^−1 and incubated for 3 h, as described previously ([Oryan et al., 2018]) and subsequently, diluted 10-fold in BSA medium and incubated for an additional hour at room temperature. To measure in vivo circulating levels of DH31, kinin and CAPA in female mosquitoes, diluted haemolymph samples collected in 70 µl DPBS droplets (see section 3.2) were loaded in duplicates into 96-well white luminescence plates (Greiner Bio-One, Germany).

The target of test [3] is AedaeDH31-R. The test can be described thus: Heterologous receptor functional activation bioluminescence assay, AedaeDH31-R. The class given is cell-based, Aedes aegypti. As to conditions: for EC50: CHO-K1-aeq cells transiently expressing AedaeDH31-R (pBudCE4.1 Gα15), aequorin luminescence over 20 s, peptides tested up to 10 µmol l^−1, read-out: EC50 on DH31-R.
Description: as §1, §2

Test [4] addresses T2, AedaeCAPA-R (Aedes aegypti, UniProt A0A7D5D2Z2).
T2 sequence (A0A7D5D2Z2 1-712): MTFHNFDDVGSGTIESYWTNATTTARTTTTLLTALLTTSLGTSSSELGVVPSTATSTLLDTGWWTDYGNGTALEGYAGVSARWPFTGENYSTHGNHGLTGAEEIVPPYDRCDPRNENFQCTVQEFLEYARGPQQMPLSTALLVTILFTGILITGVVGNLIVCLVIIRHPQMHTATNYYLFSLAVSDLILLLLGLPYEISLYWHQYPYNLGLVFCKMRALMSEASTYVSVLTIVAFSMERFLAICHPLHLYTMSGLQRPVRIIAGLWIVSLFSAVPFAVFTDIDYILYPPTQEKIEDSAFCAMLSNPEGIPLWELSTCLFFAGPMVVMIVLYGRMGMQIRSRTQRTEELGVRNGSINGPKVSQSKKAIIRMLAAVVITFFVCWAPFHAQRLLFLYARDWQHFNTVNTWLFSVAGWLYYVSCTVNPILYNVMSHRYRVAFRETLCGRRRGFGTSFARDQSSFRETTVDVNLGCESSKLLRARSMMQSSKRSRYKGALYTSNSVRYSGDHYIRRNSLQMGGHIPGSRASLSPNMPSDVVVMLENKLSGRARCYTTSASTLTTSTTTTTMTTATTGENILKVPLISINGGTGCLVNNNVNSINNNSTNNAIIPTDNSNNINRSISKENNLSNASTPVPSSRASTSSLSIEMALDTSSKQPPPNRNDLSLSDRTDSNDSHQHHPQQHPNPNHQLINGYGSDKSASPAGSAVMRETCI
The test can be described thus: cell-based. An excerpt:
Gene-specific primers were designed to amplify the open reading frame of the AedaeDH31 receptor and Aedaekinin receptor based on previously published sequences [GenBank accession numbers: DH31-R, AAGE02017873 ([Kwon et al., 2012]); kinin-R, AY596453.1 ([Lu et al., 2011]); see Table 1]. The amplified PCR products were purified using a Monarch PCR purification kit (New England Biolabs, Whitby, ON, Canada) and reamplified using modified primers containing restriction sites for subsequent directional cloning in mammalian expression plasmids. […] These three heterologously expressed receptors were used to determine the timing of release and quantify the levels in the haemolymph of CAPA (both CAPA-1 and CAPA-2), DH31 along with kinin neuropeptides in association with blood feeding by adult female mosquitoes.
Functional activation of the AedaeDH31-R, AedaeCAPA-R, and Aedaekinin-R was assayed using a previously established recombinant Chinese hamster ovary (CHO)-K1 cell line stably expressing aequorin, referred to henceforth as CHO-K1-aeq cells ([Paluzzi et al., 2012a]; [Wahedi and Paluzzi, 2018]). […] To measure in vivo circulating levels of DH31, kinin and CAPA in female mosquitoes, diluted haemolymph samples collected in 70 µl DPBS droplets (see section 3.2) were loaded in duplicates into 96-well white luminescence plates (Greiner Bio-One, Germany).

The mark [5] stands for this setting: CHO-K1-aeq cells transiently expressing Aedaekinin-R (pcDNA3.1+), aequorin luminescence over 20 s, peptides tested up to 10 µmol l^−1, read-out: EC50 on kinin-R.

Turning to `NCCc1c[nH]c2ccc(O)cc12` [5HT, 5-hydroxytryptamine], the “Effect of single diuretic on fluid secretion” value in test [1] is given as “significantly increased fluid secretion”.
As usually defined, the EC50 is the concentration needed to bring the measured effect to its halfway point. For `CC(C)[C@H](NC(=O)[C@@H]1CCC(=O)N1)C(=O)N[C@H](C(=O)N[C@@H](Cc1ccccc1)C(=O)N[C@@H](CO)C(=O)N[C@@H](CCCNC(=N)N)C(=O)N[C@@H](CC(=O)O)C(=O)N[C@@H](Cc1c[nH]c2ccccc12)C(=O)N[C@@H](CC(N)=O)C(=O)N[C@@H](C)C(N)=O)[C@@H](C)O` [ACP] ([pGlu]VTFSRDWNA-NH2), the EC50 in test [2] and in test [3] was over 10 µM each time.
On to `CC(C)C[C@H](NC(=O)[C@@H]1CCC(=O)N1)C(=O)N[C@H](C(=O)N[C@@H](Cc1ccccc1)C(=O)N[C@H](C(=O)N1CCC[C@H]1C(=O)N[C@@H](CO)C(=O)N[C@@H](Cc1c[nH]c2ccccc12)C(N)=O)[C@@H](C)O)[C@@H](C)O` [AKH] ([pGlu]LTFTPSW-NH2), for which the EC50 in test [2] and in test [3] was over 10 µM each time.
In the case of `CC(C)C[C@@H]1NC(=O)[C@@H](NC(=O)CNC(=O)CNC(=O)[C@@H](N)CCCCN)CSSC[C@@H](C(=O)N[C@@H](Cc2c[nH]c3ccccc23)C(=O)NCC(=O)NCC(=O)N[C@@H](Cc2c[nH]cn2)C(N)=O)NC(=O)[C@H](CO)NC(=O)[C@H](Cc2c[nH]cn2)NC(=O)CNC(=O)[C@H](Cc2ccc(O)cc2)NC(=O)[C@H](CO)NC1=O` [CCHa1] (H-KGGCLSYGHSCWGGH-NH2; disulfide 4-11 (inferred); N-terminus assumed), the EC50 in test [3] is over 10 µM.
As to `C[C@@H]1NC(=O)[C@H](C)NC(=O)[C@@H](NC(=O)CN)CSSC[C@@H](C(=O)N[C@@H](Cc2ccc(O)cc2)C(=O)NCC(=O)NCC(=O)N[C@@H](Cc2c[nH]cn2)C(N)=O)NC(=O)[C@H](C)NC(=O)[C@H](Cc2c[nH]cn2)NC(=O)CNC(=O)[C@H](Cc2ccccc2)NC1=O` [CCHa2] (H-GCAAFGHACYGGH-NH2; disulfide 2-9 (inferred); N-terminus assumed), in test [3], the EC50 is over 10 µM.
Turning to `CSCC[C@H](NC(=O)[C@H](CC(N)=O)NC(=O)[C@@H]1CSSC[C@H](NC(=O)[C@H](CC(C)C)NC(=O)[C@H](CO)NC(=O)[C@H](CCSC)NC(=O)[C@@H](N)Cc2ccc(O)cc2)C(=O)N[C@@H](Cc2c[nH]cn2)C(=O)N[C@@H](Cc2ccccc2)C(=O)N[C@@H](CCCCN)C(=O)N[C@@H](CC(C)C)C(=O)N1)C(N)=O` [CNMa] (H-YMSLCHFKLCNM-NH2; disulfide 5-10 (inferred); N-terminus assumed), the 50% effective concentration (EC50) in test [3] was over 10 µM.
Consider AGNSGANSGMWFGPRL-NH2 [PK1], for which the EC50 in test [2] (setting [5]) and in test [3] was over 10 µM throughout.
With GPTVGLFAFPRV-NH2 [CAPA1], the figures for the EC50 in test [4] and in test [2] (setting [5]) were 0.00183 µM and over 10 µM, respectively.
On to “MQRPQGPSLSVANPIEVLRSRLLLEIARRRMKEQDASRVSKNRQYLQQI-NH2 [DH44]”, for which the “Effect of single diuretic on fluid secretion” value in test [1] is “significantly increased fluid secretion”. Further, the EC50 in test [2] (setting [5]) and in test [3] was over 10 µM throughout. In test [3] (10^−6 mol l^−1 dose, Fig. 1B, n=3), the “Luminescence response over background on AedaeDH31-R” value is reported as “no detectable activity”.
Consider NPFHSWG-NH2 [CDP], for which, in test [2] (setting [5]), the EC50 worked out at 0.0115 µM.
With PVFFVASRY-NH2 [RYa-1], the EC50 in test [2] (setting [5]) and in test [3] was over 10 µM each time.
In the case of “TVDFGLSRGYSGAQEAKHRMAMAVANFAGGP-NH2 [DH31]”, the results for the EC50 in test [1] and in test [2] (setting [5]) were 0.0136 µM and over 10 µM, respectively.
